In patent publication US20070082930A1, “Pharmaceutical composition comprising a p2x7 receptor antagonist and a nonsteroidal anti-inflammatory drug” (ASTRAZENECA AB, priority 2003, published 2007):

Test system: streptococcal cell wall-induced arthritis
Experiment: Rat streptococcal cell wall (SCW)-induced arthritis: ankle swelling and von Frey mechanical threshold
Type: in vivo
Conditions: oral bid, P2X7 antagonist 1 30 mg/kg
Excerpt: Assessment of Anti-Inflammatory Activity of the COX-2 Inhibitor, Celecoxib/P2X7 Antagonist Combinations in Rat Streptococcal Cell Wall-Induced Arthritis.^1 1. Experimental procedure based on that described by Carlson R P, Jacobsen P B, ‘Comparison of adjuvant and streptococcal cell wall-induced arthritis in the rat’in Morgan D W, Marshall L A, editors; In Vivo Models of Inflammation. Basel: Birkhauser Verlag; 1999.
Streptococcal cell wall (SCW)-induced arthritis was induced in the left ankle of female Lewis rats. Animals were sensitised by intra-articular injection of 5 μg (in 20 μL) SCW (Lee Laboratories) into the left ankle. Ankle swelling was assessed 3 days after injection and non-responders (animals with no apparent ankle swelling) were rejected. Responding animals were randomly allocated to the test groups.
Arthritis was induced 21 days after sensitisation by intravenous (iv) injection of SCW (100 μg in 500 μL saline). Animals were monitored and assessed on a daily basis through to term-ination 6 days after induction. The rats were housed on sawdust and provided with food and water ad libitum.
In this example the P2X7 antagonist 1 was orally dosed at 30 mg/kg (4 mL/kg, bid). The compound was dosed as a suspension in 1% (w/v) methylcellulose in deionised water and was freshly prepared on a daily basis. Dosing commenced 1 day prior to induction of arthriis and continued on a daily basis through to termination on day 6 post-induction. Celecoxib (3 mg/kg) was dosed orally under the same regime as for P2X7 antagonist 1, administration of celecoxib occurring immediately after administration of P2X7 antagonist 1.
Ankle diameters were measured with vernier callipers on a daily basis from day −1. Mechanical thresholds were assessed using von Frey filaments on days −1, 1, 3 and 5. The filaments were applied in increasing weights to the ankle region on the footpad of both feet. The first filament to induce a withdrawal response was considered to be the threshold.
Effects on ankle swelling and mechanical threshold were calculated on an area under the curve (AUC) basis, as the sum of the differences from individual day −1 values. The size. and direction of the interaction was calculated and data analysis performed by ANOVA followed by Dunnett's test on the AUC data (SAS version 8.01).
The anti-inflammatory activity of the COX-2 inhibitor, rofecoxib in combination with a P2X7 antagonist was assesesd using the protocol described in Example 3A. The P2X7 antagonist 1 was dosed orally at 30 mg/kg (4 mL/kg, bid) as a suspension in 1% (w/v) methylcellulose in deionised water, together with rofecoxib (Merck Sharp & Dohme Limited) (1 mg/kg) in a single formulation. Dosing commenced 1 day prior to induction of arthritis and continued on a daily baisis through to termination on day 6 post-induction.
The anti-inflammatory activity of the COX-2 inhibitor, valdecoxib in combination with a P2X7 antagonist was assesesd using the protocol described in Example 3A. The P2X7 antagonist 1 was orally dosed at 30 mg/kg (4 mL/kg, bid) as a suspension in 1% (w/v) methylcellulose in deionised water, together with valdecoxib (Pfizer) (1 mg/kg) in a single formulation. Dosing commenced 1 day prior to induction of arthritis and continued on a daily baisis through to termination on day 6 post-induction.

[1] = Example 3A, female Lewis rats, day -1 to day 6 post-induction, celecoxib 3 mg/kg, given one immediately after the other
[2] = Example 3B, day -1 to day 6, rofecoxib 1 mg/kg, single formulation
[3] = Example 3C, day -1 to day 6, valdecoxib 1 mg/kg, single formulation

Cc1ccc(-c2cc(C(F)(F)F)nn2-c2ccc(S(N)(=O)=O)cc2)cc1 [Celecoxib, 4-[5-(4-methylphenyl)-3-(trifluoromethyl)-1H-pyrazol-1-yl]benzenesulfonamide]
% reduction of AUC (compared to arthritic vehicle control) Ankle swelling [1]: 63.0 ± 3.9 % | % reduction of AUC (compared to arthritic vehicle control) Von Frey threshold [1]: 43.2 ± 15.9 %

Cc1ccc(C(=O)N2CC3CNCC(C2)O3)cc1NC(=O)CC12CC3CC(CC(C3)C1)C2.Cl [P2X7 antagonist 1, N-[2-Methyl-5-(9-oxa-3,7-diazabicyclo[3.3.1]non-3-ylcarbonyl)phenyl]-tricyclo[3.3.1.1^3,7]decane-1-acetamide, hydrochloride]
% reduction of AUC (compared to arthritic vehicle control) Ankle swelling [1]: 28.5 ± 13.5% | % reduction of AUC (compared to arthritic vehicle control) Von Frey threshold [1]: 21.1 ± 10.9% | % reduction of AUC (compared to arthritic vehicle control) Ankle swelling [2]: 2.6 ± 11.6% | % reduction of AUC (compared to arthritic vehicle control) Von Frey threshold [2]: 26.5 ± 11.4% | % reduction of AUC (compared to arthritic vehicle control) Ankle swelling [3]: 2.6 ± 11.6% | % reduction of AUC (compared to arthritic vehicle control) Von Frey threshold [3]: 26.5 ± 11.4%

CS(=O)(=O)c1ccc(C2=C(c3ccccc3)C(=O)OC2)cc1 [Rofecoxib, 4-[4′-(methylsulfonyl)phenyl]-3-phenyl-(5H)-furanone]
% reduction of AUC (compared to arthritic vehicle control) Ankle swelling [2]: 50.6 ± 4.7 % | % reduction of AUC (compared to arthritic vehicle control) Von Frey threshold [2]: 29.8 ± 7.8 %

Cc1onc(-c2ccccc2)c1-c1ccc(S(N)(=O)=O)cc1 [Valdecoxib, 4-(5-methyl-3-phenyl-4-isoxazolyl)benzenesulfonamide]
% reduction of AUC (compared to arthritic vehicle control) Ankle swelling [3]: 52.8 ± 3.1 % | % reduction of AUC (compared to arthritic vehicle control) Von Frey threshold [3]: 37.8 ± 8.6 %
